Reference: patent publication US6472348B1, “Pyridone derivatives and herbicides” (Kumiai Chemical Industry Co., Ltd., priority 1996, dated 2002)
Blank lines part the entries; values can stand above or below the molecule they belong to.

Tests used:
[1] = system: China jute (Ab); assay: Test Example 9: crop plant selectivity by upland field foliage treatment (wheat), herbicidal effects; assay type: in vivo; set-up: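 grade of growth control; 5 = at least 90%; 4 = 70 to 90%; 3 = 50 to 70%; 2 = 30 to 50%; 1 = 10 to 30%; 0 = under 10%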; conditions: dose 1.6 g ai/10a, 14th day after treatment
Summary of the method: (§1)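 Wheat and broadleaf weeds were sown together in sand-filled pots and grown for 2 weeks in a greenhouse before foliar treatment. Herbicidal effect on weeds and phytotoxicity to wheat were scored visually against set grading standards on day 14 after treatment, with plants kept in the greenhouse.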

[2] = system: common lambsquarters (Ch); assay: as above; assay type: in vivo; set-up: scale not given here; conditions: dose 1.6 g ai/10a, 14th day after treatment
Summary of the method: as §1

[3] = system: slender amaranth (Am); assay: as above; assay type: in vivo; set-up: scale not given here; conditions: dose 1.6 g ai/10a, 14th day after treatment
Summary of the method: as §1

[4] = system: pale smartweed (Po); assay: as above; assay type: in vivo; set-up: scale not given here; conditions: dose 1.6 g ai/10a, 14th day after treatment
Summary of the method: as §1

[5] = system: wheat (Tr); assay: Test Example 9: crop plant selectivity by upland field foliage treatment (wheat), phytotoxicity; conditions: dose 1.6 g ai/10a, 14th day after treatment;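 also: grade of crop injury; 5 = at least 90%; 4 = 70 to 90%; 3 = 50 to 70%; 2 = 30 to 50%; 1 = 10 to 30%; 0 = under 10%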
Summary of the method: as §1

[6] = system: corn (Ze); assay: Test Example 11: crop plant selectivity by upland field foliage treatment (corn), phytotoxicity; conditions: upland field foliage treatment, dose 1.6 g ai/10a, 14th day after treatment
Description: (§2) (Test on Crop Plant Selectivity by Upland Field Foliage Treatment)
(§3) In a plastic pot (surface area: 600 cm^2) filled with sand, corn (Ze), pale smartweed (Po), slender amaranth (Am), common lambsquarters (Ch) and China jute (Ab) were sown and cultured in a green house for 2 weeks. […] The plants were then cultured in a green house, and the evaluation of the herbicidal effects and phytotoxicity was conducted on the 14th day after the treatment in accordance with the standards as identified in Table 47.

[7] = system: China jute (Ab); assay: Test Example 11: crop plant selectivity by upland field foliage treatment (corn), herbicidal effects; assay type: in vivo; set-up: scale not given here; conditions: upland field foliage treatment (corn test), dose 1.6 g ai/10a, 14th day after treatment
Description: as §2, §3

[8] = system: common lambsquarters (Ch); assay: as above; assay type: in vivo; set-up: scale not given here; conditions: upland field foliage treatment (corn test), dose 1.6 g ai/10a, 14th day after treatment
Description: as §2, §3

[9] = system: slender amaranth (Am); assay: as above; assay type: in vivo; set-up: scale not given here; conditions: upland field foliage treatment (corn test), dose 1.6 g ai/10a, 14th day after treatment
Description: as §2, §3

[10] = system: pale smartweed (Po); assay: as above; assay type: in vivo; set-up: scale not given here; conditions: upland field foliage treatment (corn test), dose 1.6 g ai/10a, 14th day after treatment
Description: as §2, §3

[11] = system: cotton (Go); assay: Test Example 4: crop plant selectivity by upland field soil treatment (cotton), phytotoxicity; assay type: in vivo; set-up: scale not given here; conditions: dose 6.3 g ai/10 a, evaluated 21st day after application
Summary of the method: (§4)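 Upland soil-treatment selectivity test: scoring on day 21 post-application in a greenhouse, rating crop phytotoxicity on cotton and herbicidal effect on co-sown weeds. Seeds were sown in sand-filled pots and covered with soil before treatment.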

[12] = system: green foxtail (Se); assay: Test Example 4: crop plant selectivity by upland field soil treatment (cotton), herbicidal effects; assay type: in vivo; set-up: scale not given here; conditions: dose 6.3 g ai/10 a, evaluated 21st day after application
Summary of the method: as §4

[13] = system: China jute (Ab); assay: as above; assay type: in vivo; set-up: scale not given here; conditions: dose 6.3 g ai/10 a, evaluated 21st day after application
Summary of the method: as §4

[14] = system: common lambsquarters (Ch); assay: as above; assay type: in vivo; set-up: scale not given here; conditions: dose 6.3 g ai/10 a, evaluated 21st day after application
Summary of the method: as §4

[15] = system: slender amaranth (Am); assay: as above; assay type: in vivo; set-up: scale not given here; conditions: dose 6.3 g ai/10 a, evaluated 21st day after application
Summary of the method: as §4

[16] = system: pale smartweed (Po); assay: as above; assay type: in vivo; set-up: scale not given here; conditions: dose 6.3 g ai/10 a, evaluated 21st day after application
Summary of the method: as §4

[17] = system: common lambsquarters (Ch); assay: Test Example 2: herbicidal effects by upland field soil treatment; assay type: in vivo; conditions: 100 g of the active ingredient per 10 ares, evaluated on the 21st day after application;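 also: grade of growth control; 5 = at least 90%; 4 = 70 to 90%; 3 = 50 to 70%; 2 = 30 to 50%; 1 = 10 to 30%; 0 = under 10%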
Text: (§5) (Test on Herbicidal Effects by Upland Field Soil Treatment)

[18] = system: slender amaranth (Am); assay: as above; assay type: in vivo; conditions: 100 g of the active ingredient per 10 ares, evaluated on the 21st day after application
Text: as §5

[19] = system: pale smartweed (Po); assay: as above; assay type: in vivo; conditions: 100 g of the active ingredient per 10 ares, evaluated on the 21st day after application
Text: as §5

[20] = system: rice flatsedge (Ci); assay: as above; assay type: in vivo; conditions: 100 g of the active ingredient per 10 ares, evaluated on the 21st day after application
Text: as §5

[21] = system: barnyardgrass (Ec); assay: as above; assay type: in vivo; conditions: 100 g of the active ingredient per 10 ares, evaluated on the 21st day after application
Text: as §5

[22] = system: Digitaria ciliaris (Di); assay: as above; assay type: in vivo; conditions: 100 g of the active ingredient per 10 ares, evaluated on the 21st day after application;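 also: grade of growth control; 5 = at least 90%; 4 = 70 to 90%; 3 = 50 to 70%; 2 = 30 to 50%; 1 = 10 to 30%; 0 = under 10%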
Text: as §5

[23] = system: common lambsquarters (Ch); assay: Test Example 3: herbicidal effects by upland field foliage treatment; assay type: in vivo; set-up: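 grade of growth control; 5 = at least 90%; 4 = 70 to 90%; 3 = 50 to 70%; 2 = 30 to 50%; 1 = 10 to 30%; 0 = under 10%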; conditions: 100 g active ingredient per 10 ares, evaluated 14th day after treatment
Summary of the method: (§6)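 Readout: visual herbicidal rating per defined standards, 14th day after treatment. Plants sown in sand (pot area 120 cm^2), soil-covered, greenhouse-cultured for 2 weeks prior to foliage application, then greenhouse-grown until scoring.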

[24] = system: slender amaranth (Am); assay: as above; assay type: in vivo; set-up: scale not given here; conditions: 100 g active ingredient per 10 ares, evaluated 14th day after treatment
Summary of the method: as §6

[25] = system: pale smartweed (Po); assay: as above; assay type: in vivo; set-up: scale not given here; conditions: 100 g active ingredient per 10 ares, evaluated 14th day after treatment
Summary of the method: as §6

[26] = system: rice flatsedge (Ci); assay: as above; assay type: in vivo; set-up: scale not given here; conditions: 100 g active ingredient per 10 ares, evaluated 14th day after treatment
Summary of the method: as §6

[27] = system: barnyardgrass (Ec); assay: as above; assay type: in vivo; set-up: scale not given here; conditions: 100 g active ingredient per 10 ares, evaluated 14th day after treatment
Summary of the method: as §6

[28] = system: Diaitaria ciliaris (Di); assay: as above; assay type: in vivo; set-up: scale not given here; conditions: 100 g active ingredient per 10 ares, evaluated 14th day after treatment
Summary of the method: as §6

[29] = system: corn (Ze); assay: Test Example 7: crop plant selectivity by upland field soil treatment (corn), phytotoxicity; assay type: in vivo; set-up: scale not given here; conditions: dose 6.3 g ai/10a, 21st day after application
Summary of the method: (§7)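 Greenhouse pot test in sand with soil cover over seeds of corn and weeds sown together; scored 21 d after treatment.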

[30] = system: green foxtail (Se); assay: Test Example 7: crop plant selectivity by upland field soil treatment (corn), herbicidal effects; assay type: in vivo; set-up: scale not given here; conditions: dose 6.3 g ai/10a, 21st day after application
Summary of the method: as §7

[31] = system: China jute (Ab); assay: as above; assay type: in vivo; set-up: scale not given here; conditions: dose 6.3 g ai/10a, 21st day after application
Summary of the method: as §7

[32] = system: common lambsquarters (Ch); assay: as above; assay type: in vivo; set-up: scale not given here; conditions: dose 6.3 g ai/10a, 21st day after application
Summary of the method: as §7

[33] = system: slender amaranth (Am); assay: as above; assay type: in vivo; set-up: scale not given here; conditions: dose 6.3 g ai/10a, 21st day after application
Summary of the method: as §7

[34] = system: pale smartweed (Po); assay: as above; assay type: in vivo; set-up: scale not given here; conditions: dose 6.3 g ai/10a, 21st day after application
Summary of the method: as §7

[35] = system: bulrush (Sc); assay: Test Example 1: herbicidal effects by paddy field soil treatment; assay type: in vivo; conditions: 100 g of the active ingredient per 10 ares, 21st day after the application, index 0-5 of Table 47;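 also: grade of growth control; 5 = at least 90%; 4 = 70 to 90%; 3 = 50 to 70%; 2 = 30 to 50%; 1 = 10 to 30%; 0 = under 10%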
Summary of the method: (§8)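 Herbicidal effect was scored against a graded standard 21 days after treatment. Seeds were sown in puddled, leveled paddy soil flooded to 3 cm depth, and the active ingredient was applied at 100 g per 10 ares before greenhouse culture.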

[36] = system: barnyardgrass (Ec); assay: as above; assay type: in vivo; conditions: 100 g of the active ingredient per 10 ares, 21st day after the application, index 0-5 of Table 47
Summary of the method: as §8

[37] = system: monochoria (Mo); assay: as above; assay type: in vivo; conditions: 100 g of the active ingredient per 10 ares, 21st day after the application, index 0-5 of Table 47
Summary of the method: as §8

SMILES: CC(C)C(=O)c1cc(-c2ccc(C(F)(F)F)n(C)c2=O)c(F)cc1Cl [Compound 1-196]
Herbicidal effects Ab [1]: 5
Herbicidal effects Ch [2]: 5
Herbicidal effects Am [3]: 5
Herbicidal effects Po [4]: 5
Phytotoxicity Tr [5]: 2
Phytotoxicity Ze [6]: 2
Herbicidal effects Ab [7]: 5
Herbicidal effects Ch [8]: 5
Herbicidal effects Am [9]: 5
Herbicidal effects Po [10]: 5
Phytotoxicity Go [11]: 0
Herbicidal effects Se [12]: 5
Herbicidal effects Ab [13]: 5
Herbicidal effects Ch [14]: 5
Herbicidal effects Am [15]: 5
Herbicidal effects Po [16]: 5
Herbicidal effects Ch [17]: 5
Herbicidal effects Am [18]: 5
Herbicidal effects Po [19]: 5
Herbicidal effects Ci [20]: 5
Herbicidal effects Ec [21]: 5
Herbicidal effects Di [22]: 5
Herbicidal effects Ch [23]: 5
Herbicidal effects Am [24]: 5
Herbicidal effects Po [25]: 5
Herbicidal effects Ci [26]: 5
Herbicidal effects Ec [27]: 5
Herbicidal effects Di [28]: 5
Phytotoxicity Ze [29]: 1
Herbicidal effects Se [30]: 5
Herbicidal effects Ab [31]: 5
Herbicidal effects Ch [32]: 5
Herbicidal effects Am [33]: 5
Herbicidal effects Po [34]: 5
Herbicidal effects Sc [35]: 5
Herbicidal effects Ec [36]: 5
Herbicidal effects Mo [37]: 5

melting point: 83 to 85 °C
SMILES: Cc1ccc(-c2ccc(Cl)cc2Cl)c(=O)n1C(F)F [Compound No. 1-8, 3-(2,4-dichlorophenyl)-1-difluoromethyl-6-methyl-2(1H)-pyridone]

melting point: 141 to 142 °C
SMILES: Cn1c(C(F)(F)F)ccc(-c2cc(S)c(Cl)cc2F)c1=O [Compound No. 1-42, 3-(4-chloro-2-fluoro-5-mercaptophenyl)-1-methyl-6-trifluoromethyl-2(1H)-pyridone]
